# Assay results published in patent publication US20250161311A1, “SMALL MOLECULE DIRECTED URINARY BLADDER TISSUE REGENERATION” (Northwestern University, priority 2022, published 2025).
# Values joined by “and” are separate entries in the source; they are usually repeats but may differ in a detail not shown here. Identical values can stand only once.
# What was measured:
# [1] = tested on: primary human UCs; assay: SR1 treatment of primary human urothelial cells (UCs) in vitro, AhR/Ki-67 co-staining and manual counting; assay type: cell-based; settings: for peak number of nAhR+UCs: D7, means±SE
# Protocol: SR1 Treatment of UCs in vitro Equivalent numbers of primary human UCs were treated once with SR1 (150 nM, 200 nM, 250 nM, or untreated) and allowed to grow in culture for 13 days. […] An assortment of organ specific stem cells initially maintain a high nucleus/cytoplasm ratio which gradually decreases as the cell differentiates.
# [2] = tested on: regenerated bladder tissue; assay: Regenerated bladder tissue muscle content (Trichrome) and urothelium width after cystectomy and POC scaffold augmentation; assay type: in vivo, nude rats; settings: 10 weeks post-augmentation, means±SE
# Protocol: SR1 Induces Bladder Tissue Regeneration in vivo—In the following in vivo studies, nude rats underwent an approximate 60-70% bladder cystectomy and were augmented with a POC scaffold and then: 1) instilled with saline (Saline); 2) instilled with 300 nM SR1 (SR1:1×/week for 2 weeks); or 3) seeded with human MSC/CD34+HSCs (Cell-Seeded). Animals were sacrificed 10 weeks post-augmentation. The inventors have developed, characterized, and successfully utilized CBBs (POC) in bladder regenerative settings over the last 10 years. The inventors' established human MSC/CD34+HSC seeded POC scaffold bladder augmentation model was utilized in this study to directly compare specific regenerative bladder biological metrics against SR1 treated animals to determine whether SR1 could be used in lieu of MSCs and CD34+HSCs for bladder tissue regeneration. Muscle to collagen ratios are indicative of overall bladder tissue regeneration. […] Normal bladder tissue has an approximate 1:1 to muscle to collagen. There was no statistical difference with regards to muscle regeneration between the two groups. […] This included abnormal voiding, incontinence and subsequent infection, bladder distension, ureteral or renal dysfunction, and […]. […]
# [3] = tested on: regenerated bladder tissue; assay: Bladder tissue vascularization and peripheral nerve regeneration in vivo (IF staining); set-up: species or system nude rats; settings: 10 weeks post-augmentation
# Protocol: SR1 Induces Bladder Tissue Regeneration in vivo—In the following in vivo studies, nude rats underwent an approximate 60-70% bladder cystectomy and were augmented with a POC scaffold and then: 1) instilled with saline (Saline); 2) instilled with 300 nM SR1 (SR1:1×/week for 2 weeks); or 3) seeded with human MSC/CD34+HSCs (Cell-Seeded). Animals were sacrificed 10 weeks post-augmentation. The inventors have developed, characterized, and successfully utilized CBBs (POC) in bladder regenerative settings over the last 10 years. The inventors' established human MSC/CD34+HSC seeded POC scaffold bladder augmentation model was utilized in this study to directly compare specific regenerative bladder biological metrics against SR1 treated animals to determine whether SR1 could be used in lieu of MSCs and CD34+HSCs for bladder tissue regeneration. Bladder instillation of SR1 promoted vascularization of augmented bladders along the periphery and core of grafts. […] The level of tissue vascularization may be increased by changing the concentration of SR1 instilled and/or the dosing regimen.
# [4] = tested on: rat bladders; assay: Rat bladder urodynamic studies (UDS); assay type: in vivo, nude rats; settings: for bladder compliance: compliant >60%; for leak point pressure (LPP): normal rat ~40
# Protocol: SR1 Induces Bladder Tissue Regeneration in vivo—In the following in vivo studies, nude rats underwent an approximate 60-70% bladder cystectomy and were augmented with a POC scaffold and then: 1) instilled with saline (Saline); 2) instilled with 300 nM SR1 (SR1:1×/week for 2 weeks); or 3) seeded with human MSC/CD34+HSCs (Cell-Seeded). Animals were sacrificed 10 weeks post-augmentation. The inventors have developed, characterized, and successfully utilized CBBs (POC) in bladder regenerative settings over the last 10 years. The inventors' established human MSC/CD34+HSC seeded POC scaffold bladder augmentation model was utilized in this study to directly compare specific regenerative bladder biological metrics against SR1 treated animals to determine whether SR1 could be used in lieu of MSCs and CD34+HSCs for bladder tissue regeneration. Rat Bladder Urodynamic Studies (UDS) Rat bladders were filled with saline until a bladder contraction occurred (pre- and 10 weeks post-augmentation). Bladder pressures rose during the filling until bladder contractions occurred at intravesical pressures of 25-40 cm H2O. Saline instilled animals led to a slight decrease in voiding pressures and decreased bladder compliance (FIG. 4A). SR1 instilled animals led to a decrease in intravesical pressures during voiding from 40 to 25 cm H2O (pre-augmentation to post-augmentation, respectively) with increased bladder compliance. […] With regards to leak point pressures (LPP); Saline, SR1 and Cell-Seeded groups (pre/post aug) were: 39.49±1.35/46.48±2.42; 39.66±0.81/37.1±1.47; 38.6±1.41/35.5±2.40 cm H2O, respectively. Compliance values for the same groups were: 68.77±2.49/39.3±8.55; 69.57±1.95/72.38±3.13; 46.23±12.9/89.59±1.32 percent, respectively. Normal LPP for rat is ˜40 cm H2O and compliant bladders are defined at >60%. Percent bladder capacity at 10 weeks was also measured (FIG. 4B).
# [5] = In vitro release profile of SR1 coupled to POC scaffolds, measured by spectroscopy; assay type: physicochemical
# Protocol: SR1 was coupled to POC (poly 1,8 octane diol co-citrate) scaffolds and its in vitro release profile was measured by spectroscopy, based upon the aromatic ring structures contained within SR1 (FIG. 5A). […] For pilot in vivo studies, rats underwent an ˜70% cystectomy followed by augmentation with POC or POC/SR1 (1 mM SR1). POC animals were instilled with saline once at the beginning of the study and all animals were euthanized at 4 weeks post-augmentation. […] Therefore, the inventor concludes that coupling of SR1 to a scaffold, e.g., a solid support, is an effective means of delivery of SR1 to subjects in need thereof.
compound,measurement,setting,value
"CC(C)n1cnc2c(NCCc3ccc(O)cc3)nc(-c3csc4ccccc34)nc21 [SR1, stemregenin 1]",peak number of nAhR+UCs,"[1]; 150 nM SR1, treated once",159.75±8.44 cells
same,peak number of nAhR+UCs,"[1]; 200 nM SR1, treated once",310.75±28.73 cells
same,peak number of nAhR+UCs,"[1]; 250 nM SR1, treated once",342.75±20.97 cells
same,expansion of nAhR+/Ki-67+UCs compared to untreated,[1]; D7,~6 ×
same,UCs with higher nucleus/cytoplasm ratios,"[1]; nAhR+UCs, D7, 200 nM",modest increase
same,muscle content of regenerated bladder tissue,[2]; SR1 300 nM instilled 1×/week for 2 weeks,~50% and 47.00±1.81%
same,urothelium width,[2]; unmanipulated rats 50-70 μm,52.98±2.55 μm
same,vascularization of regenerated bladder tissue,[3]; means±SE,3.60±0.24%
same,peripheral nerve regeneration (βIII tubulin IF staining),[3]; core and throughout the graft,abundance of peripheral nerve regeneration
same,intravesical pressure during voiding,[4]; 10 weeks post-augmentation,25 cm H2O
same,bladder compliance,[4]; 10 weeks post-augmentation,72.38±3.13%
same,leak point pressure (LPP),[4]; 10 weeks post-augmentation,37.1±1.47 cm H2O
same,intravesical pressure during voiding,[4]; pre-augmentation (baseline),40 cm H2O
same,bladder compliance,[4]; pre-augmentation (baseline),69.57±1.95%
same,leak point pressure (LPP),[4]; pre-augmentation (baseline),39.66±0.81 cm H2O
same,release profile of SR1 from POC scaffolds,"[5]; 1 or 2 mM starting concentrations, over 30 days, compared to POC scaffolds in saline",gradual release
same,"cumulative release of SR1 from POC scaffolds, fold higher with 2 mM SR1","[5]; 30 day time point, 2 mM versus 1 mM starting concentration",~1.4 ×
